Values of other authors in publication PMC4931877 (The Journal of Pharmacology and Experimental Therapeutics, 2016).

Test system: γ-secretase
Settings: ref Fleisher et al., 2008; Coric et al., 2012; Doody et al., 2013; cited from earlier work

| Structure (SMILES) | outcome of mild-moderate AD clinical trials |
| --- | --- |
| CC(C)[C@H](O)C(=O)N[C@@H](C)C(=O)N[C@@H]1C(=O)N(C)CCc2ccccc21 [LY450139] | Notch-related nonmelanoma skin cancers and/or progression and worsening of cognitive measures |
| NC(=O)[C@@H](CCC(F)(F)F)N(Cc1ccc(-c2ncon2)cc1F)S(=O)(=O)c1ccc(Cl)cc1 [BMS-708163, (2R)-2-[(4-chlorophenyl)sulfonyl-[[2-fluoro-4-(1,2,4-oxadiazol-3-yl)phenyl]methyl]amino]-5,5,5-trifluoropentanamide] | Notch-related nonmelanoma skin cancers and/or progression and worsening of cognitive measures |
